# Results taken from patent publication US8729112B2, “Antimicrobial haloalkyl heterocycle compounds” (NovaBay Pharmaceuticals, Inc., priority 2011, dated 2014).
# Legend:
# Assay type in all cases: cell-based
# [1] = test system: Escherichia coli (ATCC 25922); assay: Antimicrobial activity (MBC), E. coli; details: saline pH 7, 1 h at room temperature, 1.0×10^5 to 1.0×10^6 CFU/mL
# Method: (§1) Antimicrobial activity of certain compounds of the present disclosure was tested against Escherichia coli (ATCC 25922), Staphylococcus aureus (ATCC 29213), and Candida albicans (ATCC 10231). The microbial cultures were diluted in sterile saline pH 7 to prepare inocula. Test compounds were titrated by stepwise two-fold dilutions in sterile saline pH 7. A total of 1.0×10^5 to 1.0×10^6 Colony Forming Units (CFU)/mL microbe was added to each tube, mixed by gentle vortexing, and then incubated at room temperature for 1 h. Microbial plating on Petri dishes (Tryptic Soy agar or Saboraud's Dextrose agar) was performed immediately after the designated exposure after neutralization of the test article dilutions in Dey-Engley Broth. Plates were incubated at 37° C., and the numbers of microbes were counted by direct colony count to quantitate the surviving microbes as CFU/mL. Positive growth controls were made with sterile 0.9% saline. Compounds were dissolved phosphate buffered saline (PBS) at pH 7 (using HCl and/or NaOH as needed). All compounds were tested three times.
# L929 cells = assay: Cytotoxicity CT50 in L929 cells
# [2] = test system: Staphylococcus aureus (ATCC 29213); assay: Antimicrobial activity (MBC), S. aureus; details: saline pH 7, 1 h at room temperature, 1.0×10^5 to 1.0×10^6 CFU/mL
# Method: as §1
# [3] = test system: Candida albicans (ATCC 10231); assay: Antimicrobial activity (MFC), C. albicans; details: saline pH 7, 1 h at room temperature, 1.0×10^5 to 1.0×10^6 CFU/mL
# Method: as §1
Compound,MBC/MFC E. coli [1] [µg/mL],CT50 L929 cells (L929 cells) [mM],MBC/MFC S. aureus [2] [µg/mL],MBC/MFC C. albicans [3] [µg/mL]
"CC1(CCl)CCC(=O)N1Cl (stereo not shown) [Compound 36-03, 1-chloro-5-(chloromethyl)-5-methylpyrrolidin-2-one]",2,0.026,128,>512
"CC1(CCl)COC(=O)N1Cl (stereo not shown) [Compound 36-01, 3-Chloro-4-(chloromethyl)-4-methyloxazolidin-2-one]",0.5,0.09,0.5,>128
"CC1(CC(F)(F)F)COC(=O)N1Cl (stereo not shown) [Compound 36-08, 3-chloro-4-(2,2,2-trifluoroethyl)-4-methyl-oxazolidin-2-one]",4,0.232,1,128
"CC1(CBr)COC(=O)N1Cl (stereo not shown) [Compound 36-05, 4-(bromomethyl)-3-chloro-4-methyloxazolidin-2-one]",1,0.1,0.5,64
"O=C1OCC(CCl)(CCl)N1Cl [Compound 36-06, 3-chloro-4,4-bis(chloromethyl)oxazolidin-2-one]",1,0.4,0.5,16
"CC1(CF)COC(=O)N1Cl (stereo not shown) [Compound 36-07, 3-chloro-4-(fluoromethyl)-4-methyl-oxazolidin-2-one]",0.5,0.142,0.5,256
"CN1CC(C)(CCl)N(Cl)C1=O (stereo not shown) [Compound 36-02, 3-Chloro-4-(chloromethyl)-1,4-dimethylimidazolidin-2-one]",8,0.04,16,512
